In article PMC10652874, “Investigation into the mechanism of action of the antimicrobial peptide epilancin 15X” (Frontiers in Microbiology, 2023):

System: S. carnosus TM300
Experiment: RNAseq differential gene expression
Assay type: cell-based, Staphylococcus carnosus
Protocol: For the RNAseq experiments, epilancin was added at sub-lethal concentration (0.5x MIC) to S. carnosus TM300 once the cultures reached an OD600 of 0.6. RNA was extracted 40 min after the treatment, using a FastRNA Pro Blue kit (MP Biomedicals). Both treated and parallel untreated samples were collected at the same time. Sequencing was performed at the Carver Biotechnology Center (UIUC). For RNAseq analysis, gene counts were read in to R (v3.1.1; [Team, 2014]), and 14/2441 genes were removed because they had fewer than 32 total counts across the six samples. edgeR’s (v3.6.7) TMM normalization ([Robinson and Oshlack, 2010]) plus negative binomial generalized log-linear model ([McCarthy et al., 2012]) was used to test for differential expression between treated and untreated groups, while accounting for pairing of U and T replicates from three different cultures. p-values were adjusted using the false discovery rate method ([Benjamini and Hochberg, 1995]).

Epilancin 15X
fold_change Sca_1501 (hypothetical protein): 2.75
fold_change Sca_1502 (hypothetical protein): 4.86
fold_change Sca_1504 (hypothetical protein): 11.43
fold_change Sca_1505 (hypothetical protein): 11.29
fold_change Sca_1506 (hypothetical protein): 11.77
fold_change Sca_1507 (hypothetical protein): 12.4
fold_change Sca_1508 (hypothetical protein): 10.53
fold_change Sca_1509 (hypothetical protein): 0.5
fold_change Sca_1523 (hypothetical protein): 2.05
fold_change Sca_1526 (hypothetical protein): 2.58
fold_change Sca_1532 (hypothetical protein): 3.3
fold_change Sca_1533 (hypothetical protein): 3.51
fold_change Sca_1534 (hypothetical protein): 2.71
fold_change Sca_1535 (hypothetical protein): 2.45
fold_change Sca_1536 (hypothetical protein): 2.13
fold_change Sca_1587 (hypothetical protein): 2.19
fold_change Sca_1588 (hypothetical protein): 2.2
fold_change Sca_1643 (hypothetical protein): 2.32
fold_change Sca_1645 (hypothetical protein): 2.04
fold_change Sca_1650 (hypothetical protein): 2.26
fold_change Sca_1667 (hypothetical protein): 3.97
fold_change Sca_1668 (hypothetical protein): 3.55
fold_change Sca_1674 (hypothetical protein): 2.34
fold_change Sca_1675 (hypothetical protein): 3.21
fold_change Sca_1681 (hypothetical protein): 2.25
fold_change Sca_1686 (hypothetical protein): 4.82
fold_change Sca_1687 (hypothetical protein): 4.15
fold_change Sca_1689 (hypothetical protein): 2.35
fold_change Sca_1737 (hypothetical protein): 2.07
fold_change Sca_1738 (hypothetical protein): 2.11
fold_change Sca_1755 (hypothetical protein): 3.06
fold_change Sca_1788 (hypothetical protein): 3.57
fold_change Sca_1804 (hypothetical protein): 5.16
fold_change Sca_1805 (hypothetical protein): 2.14
fold_change Sca_1807 (hypothetical protein): 2.04
fold_change Sca_1815 (hypothetical protein): 0.5
fold_change Sca_1838 (hypothetical protein): 2.29
fold_change Sca_1862 (hypothetical protein): 0.49
fold_change Sca_1869 (hypothetical protein): 2.26
fold_change Sca_1903 (hypothetical protein): 4.81
fold_change Sca_1904 (hypothetical protein): 2.54
fold_change Sca_1905 (hypothetical protein): 2.54
fold_change Sca_1906 (hypothetical protein): 2.34
fold_change Sca_1917 (hypothetical protein): 2.88
fold_change Sca_1954 (hypothetical protein): 2.15
fold_change Sca_1959 (hypothetical protein): 7.97
fold_change Sca_1992 (hypothetical protein): 2.15
fold_change Sca_2001 (hypothetical protein): 2.07
fold_change Sca_2004 (hypothetical protein): 2.83
fold_change Sca_2009 (hypothetical protein): 4.15
fold_change Sca_2014 (hypothetical protein): 2.23
fold_change Sca_2018 (hypothetical protein): 2.95
fold_change Sca_2020 (hypothetical protein): 2.38
fold_change Sca_2021 (hypothetical protein): 2.73
fold_change Sca_2022 (hypothetical protein): 2.89
fold_change Sca_2023 (hypothetical protein): 3.49
fold_change Sca_2024 (hypothetical protein): 8.09
fold_change Sca_2051 (hypothetical protein): 2.03
fold_change Sca_2066 (hypothetical protein): 2.09
fold_change Sca_2098 (hypothetical protein): 2.16
fold_change Sca_2099 (hypothetical protein): 2
fold_change Sca_2122 (hypothetical protein): 2.08
fold_change Sca_2131 (hypothetical protein): 4.04
fold_change Sca_2132 (hypothetical protein): 2.49
fold_change Sca_2133 (hypothetical protein): 2.15
fold_change Sca_2136 (hypothetical protein): 3
fold_change Sca_2141 (hypothetical protein): 2.34
fold_change Sca_2182 (hypothetical protein): 0.5
fold_change Sca_2186 (hypothetical protein): 2.4
fold_change Sca_2187 (hypothetical protein): 2.82
fold_change Sca_2188 (hypothetical protein): 5.77
fold_change Sca_2193 (hypothetical protein): 5.14
fold_change Sca_2202 (hypothetical protein): 2.52
fold_change Sca_2207 (hypothetical protein): 2.06
fold_change Sca_2209 (hypothetical protein): 2.42
fold_change Sca_2213 (hypothetical protein): 2.61
fold_change Sca_2215 (hypothetical protein): 3.52
fold_change Sca_2221 (hypothetical protein): 2.48
fold_change Sca_2222 (hypothetical protein): 2.24
fold_change Sca_2226 (hypothetical protein): 3.16
fold_change Sca_2228 (hypothetical protein): 3.64
fold_change Sca_2229 (hypothetical protein): 3.47
fold_change Sca_2230 (hypothetical protein): 2.6
fold_change Sca_2231 (hypothetical protein): 2.37
fold_change Sca_2235 (hypothetical protein): 2.04
fold_change Sca_2236 (hypothetical protein): 2.08
fold_change Sca_2253 (hypothetical protein): 0.5
fold_change Sca_2268 (hypothetical protein): 3.5
fold_change Sca_2269 (hypothetical protein): 3.56
fold_change Sca_2273 (hypothetical protein): 11.9
fold_change Sca_2275 (hypothetical protein): 3.1
fold_change Sca_2284 (hypothetical protein): 0.49
fold_change Sca_2295 (hypothetical protein): 4.48
fold_change Sca_2296 (hypothetical protein): 2.39
fold_change Sca_2297 (hypothetical protein): 2.21
fold_change Sca_2299 (hypothetical protein): 5.46
fold_change Sca_2301 (hypothetical protein): 2.01
fold_change Sca_2334 (hypothetical protein): 5.35
fold_change Sca_2337 (hypothetical protein): 2.1
fold_change Sca_2358 (hypothetical protein): 2.95
fold_change Sca_2370 (hypothetical protein): 2.53
fold_change Sca_2373 (hypothetical protein): 3.45
fold_change Sca_2379 (hypothetical protein): 3.04
fold_change Sca_2384 (hypothetical protein): 2.31
fold_change Sca_2385 (hypothetical protein): 3.04
fold_change Sca_2386 (hypothetical protein): 2.57
fold_change Sca_2398 (hypothetical protein): 19.58
fold_change Sca_2399 (hypothetical protein): 20.62
fold_change Sca_2424 (hypothetical protein): 2.19
fold_change Sca_2425 (hypothetical protein): 2.2
fold_change Sca_2426 (hypothetical protein): 3.85
fold_change Sca_2435 (hypothetical protein): 6.09
fold_change Sca_2436 (hypothetical protein): 5.9
fold_change Sca_2437 (hypothetical protein): 4.25
fold_change Sca_2457 (hypothetical protein): 3.07
fold_change orf1 (hypothetical protein): 2.79
fold_change ydfG (hypothetical protein): 5.22
fold_change Sca_1639 (hypothetical protein, gene fmhA'): 2.76
fold_change Sca_1638 (hypothetical protein, gene fmhA''): 3.24
fold_change Sca_1124 (iron uptake regulatory protein, gene fur): 2.1
fold_change geh (lipase (fragment 1), gene geh'): 2.82
fold_change geh' (lipase (fragment 2), gene geh''): 2.62
fold_change Sca_0327 (lysine decarboxlyase family protein): 5.96
fold_change dnaK (molecular chaperone DnaK): 2.67
fold_change moeA (molybdopterin biosynthesis protein MoeA): 2.6
